{"source": "patent US20180360090A1", "about": "“NUTRITIONAL COMPOSITIONS AND INFANT FORMULAS TO PROMOTE MYELINATION IN THE BRAIN” (NESTEC S.A., priority 2015, published 2018)", "data": [{"test_system": "brain myelination (myelin water fraction)", "assay": "Cross-sectional correlation analysis (GLM) of infant formula nutrient composition against brain myelination, measured as MWF by mcDESPOT MRI", "type": "in vivo, human", "conditions": "children up to 5 years fed different infant formulas during infancy; voxel-wise correlations, p<0.05 corrected", "experimental": "(§1) MRI brain scans of infants and children between 0 and 5 years were acquired using a white matter imaging technique. This technique provides a quantitative measure, the Myelin Water Fraction (MWF), which is a surrogate marker of myelin content. When mapped as a function of time across early childhood, myelination trajectories can be generated.\n(§2) Infant formula composition: six infant formulas fed to infants participating in study were analyzed for their composition/level of myelin-relevant nutrients.\n(§3) Infants included in this study were drawn from a larger longitudinal study of normal brain and behavioral development: the Brown university Assessment of Myelination and Behavior Across Maturation (BAMBAM). To focus on neurotypical development, children with known potential risk factors for learning, neurologic, or psychiatric disorders were specifically excluded during recruitment and enrollment. Thus, children with in utero alcohol or illicit substance exposure, premature (<37 weeks gestation) or multiple birth, fetal ultrasound abnormalities, complicated pregnancy (e.g., preeclampsia), APGAR scores <8, NICU admission, neurological disorder (e.g., head injury, epilepsy), psychiatric or developmental disorders in the infant, parents or siblings (including maternal depression requiring medication) were excluded. Ongoing screenings, such as the MCAT for autism, or CBCL for behavioral problems, were further used to remove enrolled children with clinically concerning behaviors or overt medical conditions (such as autism spectrum disorders).\n(§4) A combination of retrospective and prospective data were acquired from parents via detailed medical histories and parental interview on type of infant formula used, percentage of breastfeeding to formula feeding, and length of exclusive breastfeeding. This information was updated at each study visit, which occurred approximately every 6 months for children under 2 years, and yearly for older children. Using this information, children were categorized into one of 2 groups: #1. Exclusively formula-fed; and #2. Exclusively breastfed for at least 90 days (3 months). Children who were fed a combination of breastmilk and formula within 3 months were excluded from our analysis. Infants within the exclusively formula-fed group were further sub-divided based on parental reports of the main infant formula used throughout the first 3 months. Main formula was defined as that given 90% of the time or more (in the case were parents used an alternate brand during vacation, for example).\n(§5) Using these criteria, 94 exclusively formula-fed infants and young children were selected into group #1. These included 13 children who received formula #2; 28 who received formula #5; 8 who received formula #3; 39 who received formula #4; 5 who received formula #1 and 1 who received formula #6. A sample of 52 exclusively breast-fed infants were also selected and matched to the over formula-fed group with regards to mean age, gestation duration, birth weight, male:female ratio, ethnicity ratio, maternal education, family size, and number of languages spoken in the home (in addition to English).\n(§6) Each infant was scanned using the mcDESPOT (multicomponent Driven Equilibrium Single Pulse Observation of T1 and T2) white matter imaging technique Deoni et al. (Magn. Reson. Med. 2008, 60:1372-1387), which provides a quantitative measure of the myelin water fraction (MWF) at each imaging point throughout the brain. All infants were scanned during natural (i.e. non-sedated) sleep using acoustically-muffled mcDESPOT imaging protocols. Total imaging times ranged from 19 minutes for the youngest toddlers to 24 minutes for the older 4 year-old children.\n(§7) All data were acquired on a Siemens 3T Tim Trio scanner equipped with a 12 channel head RF array.", "values": [{"compound": "Iron", "nutritional drivers for myelination (final general linear model)": "identified drivers"}, {"compound": "Vitamin B12", "nutritional drivers for myelination (final general linear model)": "identified drivers"}, {"compound": "[P]", "note": "[Phosphorus]", "nutritional drivers for myelination (final general linear model)": "identified drivers"}, {"compound": "[Ca]", "note": "[Calcium]", "nutritional drivers for myelination (final general linear model)": "identified drivers"}, {"compound": "[Mg]", "note": "[Magnesium]", "nutritional drivers for myelination (final general linear model)": "identified drivers"}, {"compound": "Zinc", "nutritional drivers for myelination (final general linear model)": "identified drivers"}, {"compound": "sphingomyelin", "nutritional drivers for myelination (final general linear model)": "identified drivers"}, {"compound": "C[N+](C)(C)CCO", "note": "[Choline]", "nutritional drivers for myelination (final general linear model)": "identified drivers"}]}, {"test_system": "brain myelination (myelin water fraction)", "assay": "Cross-sectional correlation analysis (GLM) of infant formula nutrient composition against brain myelination, measured as MWF by mcDESPOT MRI", "type": "in vivo, human", "conditions": "children up to 5 years fed different infant formulas; in particular in the visual cortex", "experimental": "as §1, §2, §3, §4, §5, §6, §7", "values": [{"compound": "CCCCC/C=C\\C/C=C\\C/C=C\\C/C=C\\CCCC(=O)O", "note": "[ARA, arachidonic acid]", "association with myelination (myelin water fraction) over time in the brain": "significant association with myelination"}]}]}
